Data from patent US5965539A, “Inhibitors of prenyl transferases” (Univeristy of Pittsburgh, priority 1996, dated 1999).
Read-outs that look alike come from different tables or passages of the source.

Tests used:
H-Ras processing = test: Ras processing assay in H-RasF cells (NIH 3T3 transformed with oncogenic H-Ras-CVLS), immunoblot; type: cell-based; conditions: whole cells; read-out: H-Ras processing IC50
Method: H-RasF cells (45) were seeded on day 0 in 100 mm Dishes (costar) in Dulbecco's modified Eagles medium (GIBCO) and allowed to grow to 40-60% confluency. […] On day 3, cells were washed one time with ice cold PBS and were collected and lysed by incubation for 30-60 min on ice in lysis buffer (41). Lysates were cleared (14,000 rpm, 4° C., 15 min) and supernatants collected. Equal amounts of lysate were separated on a 12.5% SDS-PAGE, transfered to nitrocellulose, and a western blot performed using a anti-Ras antibody (Y13-238, ATCC) or anti-Rap1A antibody (Santa Cruz Biotechnology, Santa Cruz, Calif.). Antibody reactions were visualized using peroxidase-conjugated goat anti-rat IgG for Y13-238 and peroxidase-conjugated goat anti-rabbit IgG for Rap1A and an enhanced chemiluminescence detection system (ECL; Amersham Corp.)
H-Ras cells (45) and K-Ras4B Cells (32) were kind gifts from Dr. Channing Der and Dr. Adrienne Cox (University of North Carolina, Chapel Hill). Means of obtaining these cell lines will be easily recognized by the skilled practitioner. Cells were seeded on day 0 in 100 mm dishes in Dulbecco's modified Eagles medium supplemented with 10% calf serum and 1% penicillin-streptomycin. […] On day 3, cells were washed and lysed in lysis buffer containing 50 mM HEPES, pH 7.5, 10 mM NaCl, 1% TX-100, 10% glycerol, 5 mM MgCl2, 1 mM EGTA, 25 μg/ml leupeptin, 2 mM PMSF, 2 mM Na3 VO4, 1 mg/ml soybean trypsin inhibitor, 10 μg/ml aprotinin, 6.4 mg/ml Sigma-104® phosphatase substrate. Lysates were cleared (14,000 rpm, 4° C., 15 min) and equal amounts of protein were separated on a 12.5% SDS-PAGE, transferred to nitrocellulose, and immunoblotted using an anti-Ras antibody (Y13-259, ATCC) or an anti-RapIA antibody (SC-65, Santa Cruz Biotechnology, Santa Cruz, Calif.). Antibody reactions were visualized using either peroxidase-conjugated goat anti-rat 1 gG (for Y13-259), or peroxidase-conjugated goat anti-rabbit 1 gG (for Rap1A) and an enhanced chemiluminescence detection (ECL, Amersham Corp.), as described previously (41).

FTase [1] = target: T1, FTase (Homo sapiens, UniProt P49356); test: FTase activity assay: transfer of [3H]farnesyl from FPP to recombinant H-Ras-CVLS, Daudi 60,000xg supernatant; type: biochemical; conditions: for GG/F: ratio GGTase I IC50 / FTase IC50; for IC50: read-out: FTase IC50; for Selectivity: FTase over GGTase I
T1 construct: FTase and GGTase I activities from 60,000×g supernatants of human Burkitt lymphoma (Daudi) cells; endogenous in cells; host or cells: human Burkitt lymphoma (Daudi) cells, 60,000xg supernatant (partially purified)
Method: FTase and GGTase I activities from 60,000×g supernatants of human Burkitt lymphoma (Daudi) cells (ATCC, Rockville, Md., USA) were assayed as described previously for FTase (41). Briefly, 100 μg of the supernatant was incubated in 50 mM Tris, pH 7.5, 50 μM ZnCl2, 20 mM KCl and 1 mM dithiothreitol (DTT).
Human Burkitt lymphoma (Daudi) cells (ATCC, Rockville, Md.) were grown in suspension in RPMI 1640 medium containing 10% fetal bovine serum (FBS) and 1% Pen-Strep in a humidified 10% CO2 incubator at 37° C. The cells were harvested and sonicated in 50 mM Tris, pH 7.5, 1 mM EDTA, 1 mM EGTA, 25 μg/ml leupeptin, 1 mM phenylmethylsulfonyl fluoride. Homogenates were then spun at 12,000×g and the resulting supernatant further spun at 60,000×g. The supernatant was assayed for both FTase and GGTase I. Briefly, 100 μg of the supernatants was incubated in 50 mM Tris, pH 7.5, 50 μM ZnCl2, 20 mM KCl, 3 mM MgCl2 and 1 mM DTT. […] FPP (625 nM; 16.3 Ci/mmol). For GGTase assays, the reaction was also incubated for 30 minutes at 37° C. but with recombinant H-Ras-CVLL (5 μM) and [^3 H] GGPP (525 nM; 19.0 Ci/mmol). The reaction was stopped and passed through glass fiber filters to separate free and incorporated label. For inhibition studies, the peptidomimetics were premixed with FTase or GGTase I prior to adding the remainder of the reaction mixture. […] Recombinant H-Ras-CVLL was prepared from bacteria (32).
FTase and GGTase I activities from 60,000×g supernatants of human Burkitt lymphoma (Daudi) cells (ATCC, Rockville, Md.) were assayed exactly as described previously for FTase (41).

GGTase I = target: T2, GGTase I (Homo sapiens, UniProt P53609); test: GGTase I activity assay: transfer of [3H]geranylgeranyl to recombinant H-Ras-CVLL, Daudi 60,000xg supernatant; type: biochemical
T2 construct: FTase and GGTase I activities from 60,000×g supernatants of human Burkitt lymphoma (Daudi) cells; endogenous in cells; host or cells: human Burkitt lymphoma (Daudi) cells, 60,000xg supernatant (partially purified)
Method: FTase and GGTase I activities from 60,000×g supernatants of human Burkitt lymphoma (Daudi) cells (ATCC, Rockville, Md., USA) were assayed as described previously for FTase (41). Briefly, 100 μg of the supernatant was incubated in 50 mM Tris, pH 7.5, 50 μM ZnCl2, 20 mM KCl and 1 mM dithiothreitol (DTT). The reaction was incubated at […] for 30 min with recombinant Ha-Ras-CVLS (11 μM) and [^3 H]FPP (625 nM; 16.3 Ci/mmol) for FTase, and recombinant Ha-Ras-CVLL (5 μM) and [^3 H]geranylgeranylpyrophosphate (525 nM; 19.0 Ci/mmol) for GGTase I. The peptidomimetics were mixed with FTase and GGTase before adding to the reaction mixture.
Human Burkitt lymphoma (Daudi) cells (ATCC, Rockville, Md.) were grown in suspension in RPMI 1640 medium containing 10% fetal bovine serum (FBS) and 1% Pen-Strep in a humidified 10% CO2 incubator at 37° C. The cells were harvested and sonicated in 50 mM Tris, pH 7.5, 1 mM EDTA, 1 mM EGTA, 25 μg/ml leupeptin, 1 mM phenylmethylsulfonyl fluoride. Homogenates were then spun at 12,000×g and the resulting supernatant further spun at 60,000×g. The supernatant was assayed for both FTase and GGTase I. Briefly, 100 μg of the supernatants was incubated in 50 mM Tris, pH 7.5, 50 μM ZnCl2, 20 mM KCl, 3 mM MgCl2 and 1 mM DTT. For FTase assays, the reaction was incubated at 37° C. for 30 minutes with recombinant H-Ras-CVLS (11 μM) and [^3 H] FPP (625 nM; 16.3 Ci/mmol). For GGTase assays, the reaction was also incubated for 30 minutes at 37° C. but with recombinant H-Ras-CVLL (5 μM) and [^3 H] GGPP (525 nM; 19.0 Ci/mmol). The reaction was stopped and passed through glass fiber filters to separate free and incorporated label. For inhibition studies, the peptidomimetics were premixed with FTase or GGTase I prior to adding the remainder of the reaction mixture. Recombinant H-Ras-CVLS was prepared as described previously (26) from bacteria (31). Recombinant H-Ras-CVLL was prepared from bacteria (32).
FTase and GGTase I activities from 60,000×g supernatants of human Burkitt lymphoma (Daudi) cells (ATCC, Rockville, Md.) were assayed exactly as described previously for FTase (41). Inhibition studies were performed by determining the ability of Ras CAAX peptidomimetics to inhibit the transfer of [^3 H]-farnesyl and [^3 H]-geranylgeranyl from [^3 H]FPP and [^3 H]GGPP to H-ras-CVLS and H-Ras-CVLL, respectively (41).

Ras processing = Ras processing assay in EJ3 / Ras transformed 3T3 cells (FIG. 16A); type: cell-based
Method: EJ3 cells were treated with peptidomimetics or vehicle for 20-24 h. Cells were lysed in lysis buffer (10 mM Na2 HPO4, pH 7.25, 150 mM NaCl, 0.1% sodium dodecyl sulfate, 1% Triton X-100, 12 mM sodium deoxycholate, 1 mM NaF, 0.2% NaN3, 2 mM PMSF, 25 μg/ml leupeptin) and the lysates were cleared by spinning at 13,000 rpm for 15 minutes. Ras protein was immunoprecipitated overnight at 4° C. with 50 μg of anti-Ras antibody (Y13-259; hybridoma from ATCC, Rockville, Md.) along with 30 μl Protein A-agarose goat anti-rat IgG complex (oncogene Science, Uniondale, N.Y.). Immunoprecipitates were washed 4 times with lysis buffer and the bound proteins were released by heating for 5 minutes in 40 μl SDS-PAGE sample buffer and subsequently electrophoresed on a 12.5% SDS-PAGE.

Rap1A processing = Rap1A processing assay in EJ3 / Ras transformed 3T3 cells (FIG. 16B); type: cell-based
Method: For Rap1A processing assays, 50 μg of cell lysates were electrophoresed as described above for Ras processing and transferred to nitrocellulose. These membranes were then blocked with 5% milk in Tris-buffered saline, pH 8.0, containing 0.5% Tween-20 and probed with anti-Rap1A (1 μg/ml in 5% milk/TBS-T; Santa Cruz Biotechnology, Santa Cruz, Calif.). Antibody reactions were visualized using peroxidase-conjugated goat anti-rabbit IgG (Oncogene) and ECL chemiluminescence as described above.

FTase [2] = target: T1, FTase; test: Peptidomimetics farnesylation assay (silica gel TLC); type: biochemical; conditions: Table 4; substrate for farnesylation, TLC
Method: The ability of human Burkitt lymphoma (Daudi) FTase to farnesylate peptides and peptidomimetics was determined as described previously (34, 35). Briefly, 25 μl of reaction mixture containing 50 μg of 60,000×g supernatants and 20 μM peptidomimetic in 50 mM Tris, pH 7.5, 50 μM ZnCl2, 20 mM KCl, 3 mM MgCl2, 1 mM DTT and 0.2% octylβ-D-glucoside was incubated for 30 minutes at 37° C., then spotted onto silica gel G TLC sheets (20×20 cm, Brinkmann Instruments), and developed with n-propanol/5 N ammonium hydroxide/water (6:1:1). The dried sheets were sprayed with En^3 Hance (DuPont NEN) and exposed to x-ray film for detection of [^3 H] farnesylated products.

[3] = Table 1, read-out: GGTase I IC50
[4] = Table 4, read-out: GGTase-I IC50

T2 sequence (P53609 whole entry): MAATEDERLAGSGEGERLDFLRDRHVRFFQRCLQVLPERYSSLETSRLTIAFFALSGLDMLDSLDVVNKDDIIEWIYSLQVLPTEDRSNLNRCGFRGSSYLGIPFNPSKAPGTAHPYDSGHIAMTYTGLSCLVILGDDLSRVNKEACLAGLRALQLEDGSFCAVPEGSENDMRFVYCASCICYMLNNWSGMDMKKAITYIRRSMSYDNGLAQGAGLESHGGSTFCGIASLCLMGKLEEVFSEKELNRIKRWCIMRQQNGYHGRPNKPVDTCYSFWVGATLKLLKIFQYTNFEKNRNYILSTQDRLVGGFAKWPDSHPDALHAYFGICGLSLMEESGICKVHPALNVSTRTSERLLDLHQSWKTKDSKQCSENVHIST
T1 sequence (P49356 whole entry): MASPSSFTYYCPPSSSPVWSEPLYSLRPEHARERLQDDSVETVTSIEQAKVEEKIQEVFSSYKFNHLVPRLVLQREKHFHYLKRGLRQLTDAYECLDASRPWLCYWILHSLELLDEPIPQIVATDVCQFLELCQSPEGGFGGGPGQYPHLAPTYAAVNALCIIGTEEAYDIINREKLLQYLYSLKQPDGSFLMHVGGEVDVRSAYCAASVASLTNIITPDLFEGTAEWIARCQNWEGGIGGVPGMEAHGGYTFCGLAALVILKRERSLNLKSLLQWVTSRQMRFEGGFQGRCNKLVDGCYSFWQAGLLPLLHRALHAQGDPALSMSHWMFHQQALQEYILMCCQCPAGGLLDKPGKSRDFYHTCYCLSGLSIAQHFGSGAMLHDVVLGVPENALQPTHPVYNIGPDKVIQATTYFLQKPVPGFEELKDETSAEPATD

Structure (SMILES) | IC50 (H-Ras processing) | selectivity for FTase over GGTase I (FTase [1]) | GG/F (FTase [1]; Table 1) | IC50 (FTase [1]; Table 1) | Selectivity (FTase [1]; Table 4) | IC50 (FTase [1]; Table 4) | IC50 (FTase [1]) | IC50 (GGTase I; [3]) | IC50 (GGTase I; [4]) | inhibition of Ras processing (Ras processing; 200 μM) | inhibition of Ras processing (Ras processing; FIG. 16A) | inhibition of Rap1A processing (Rap1A processing) | Substrate (FTase [2])
CSCC[C@H](NC(=O)c1ccc(NC[C@@H](N)CS)cc1)C(=O)O [FTI-249, 4-N-[2(R)-Amino-3-mercaptopropyl]aminobenzoyl methionine] | 100 µM | 15 fold | 15 | 0.272 µM | 15 | 0.3 µM | 0.3 µM | 3.97 µM | 4.4 µM | did not inhibit Ras processing | did not inhibit Ras processing | – | –
Cc1cccc(-c2ccc(NC[C@@H](N)CS)cc2)c1 [FTI-263, 4-N-[2(R)-Amino-3-mercaptopropyl]amino-3'-methylbiphenyl] | – | – | – | – | 141 | 0.71 µM | – | – | > 100 µM | – | – | did not inhibit Rap1A processing | no
CC[C@H](C)C(=O)O[C@H]1C[C@@H](C)C=C2C=C[C@H](C)[C@H](CC[C@@H]3C[C@@H](O)CC(=O)O3)[C@H]21 [lovastatin, reference compound] | – | – | – | – | – | – | – | – | – | – | inhibited Ras processing | inhibited the processing of Rap1A | –
COC(=O)[C@H](CCSC)NC(=O)c1ccc(NC[C@@H](N)CS)cc1 [FTI-254, 4-N-[2(R)-Amino-3-mercaptopropyl]aminobenzoyl methionine methyl ester] | – | – | 19 | 1 µM | – | – | – | 19 µM | – | inhibited FTase | – | – | –
N[C@@H](CS)CNc1ccc(-c2ccc(C(=O)O)cc2)cc1 [FTI-271, 4-N-[2(R)-Amino-3-mercaptopropyl]amino-4'-carboxybiphenyl] | – | – | – | – | – | – | – | – | > 100 µM | – | – | did not inhibit Rap1A processing | no
